Earlier results as cited in US8415362B2, “Pyrazolyl substituted pyrrolo[2,3-b]pyrimidines as Janus kinase inhibitors” (Incyte Corporation, priority 2005, dated 2013).

Assays:
JAK3 = molecular target: T1, JAK3 (Mus musculus, UniProt Q62137)
T1 construct: host or cells: NOD mouse (in vivo)
T1 sequence (Q62137 1-1100): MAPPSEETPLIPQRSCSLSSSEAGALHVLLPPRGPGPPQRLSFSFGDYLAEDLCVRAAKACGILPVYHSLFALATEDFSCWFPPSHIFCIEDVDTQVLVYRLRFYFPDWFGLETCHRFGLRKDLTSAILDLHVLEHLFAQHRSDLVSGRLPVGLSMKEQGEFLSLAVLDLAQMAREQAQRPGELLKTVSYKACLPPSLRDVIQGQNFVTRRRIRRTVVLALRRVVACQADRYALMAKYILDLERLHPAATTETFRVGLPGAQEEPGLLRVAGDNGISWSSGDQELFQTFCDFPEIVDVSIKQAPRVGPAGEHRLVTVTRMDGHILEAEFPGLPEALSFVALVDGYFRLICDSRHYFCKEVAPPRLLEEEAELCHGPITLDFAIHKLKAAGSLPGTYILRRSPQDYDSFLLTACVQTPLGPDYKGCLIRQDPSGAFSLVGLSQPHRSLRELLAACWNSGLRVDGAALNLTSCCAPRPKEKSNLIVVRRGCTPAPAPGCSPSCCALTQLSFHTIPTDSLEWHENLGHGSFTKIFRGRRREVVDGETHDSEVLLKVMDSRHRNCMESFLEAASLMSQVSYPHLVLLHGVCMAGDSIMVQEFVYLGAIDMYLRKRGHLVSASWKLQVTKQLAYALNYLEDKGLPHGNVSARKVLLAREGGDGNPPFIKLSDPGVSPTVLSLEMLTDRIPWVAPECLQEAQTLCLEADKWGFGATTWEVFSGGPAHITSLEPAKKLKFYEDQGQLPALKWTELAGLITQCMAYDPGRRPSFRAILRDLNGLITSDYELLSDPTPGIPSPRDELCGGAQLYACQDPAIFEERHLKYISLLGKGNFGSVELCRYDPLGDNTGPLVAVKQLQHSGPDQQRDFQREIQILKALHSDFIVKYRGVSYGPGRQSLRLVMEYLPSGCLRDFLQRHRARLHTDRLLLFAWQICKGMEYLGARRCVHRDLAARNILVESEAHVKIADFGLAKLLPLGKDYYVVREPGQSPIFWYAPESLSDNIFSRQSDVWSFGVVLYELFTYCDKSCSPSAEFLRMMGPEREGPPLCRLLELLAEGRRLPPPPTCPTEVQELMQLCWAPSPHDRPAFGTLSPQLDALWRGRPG

[1] = some patients
[2] = system: myeloid dendritic cells (DCs); details: DCs arrested at an immature level
[3] = system: IL-6-dependent MM cell lines

For `COc1cc2ncnc(Nc3ccc(O)cc3)c2cc1OC` [JANEX-1], the onset of diabetes (JAK3; NOD mouse model of autoimmune type I diabetes) is listed as “delayed the onset of diabetes” and the immunomodulatory activity (JAK3; mouse, in vivo) is listed as “potent immunomodulatory activity”.

In the case of `C#Cc1cccc(Nc2ncnc3cc(OCCOC)c(OCCOC)cc23)c1` [Tarceva], the acneiform rash [1] is given as “induced acneiform rash”.

For `COc1cc2ncnc(Nc3ccc(O)c(Br)c3)c2cc1OC` [WHI-P-154], the “CD40-induced effects (JAK3 activity, costimulatory molecule expression, IL-12 production, allogeneic stimulatory capacity)” value [2] is given as “prevented these effects”.

In the case of `N#C/C(=C\c1ccc(O)c(O)c1)C(=O)NCc1ccccc1` [tyrphostin AG490], the “ERK2 and STAT3 phosphorylation” value ([3]; IL-6-dependent MM cell lines) is given as “inhibited”, the JAK2 kinase activity ([3]; IL-6-dependent MM cell lines) is given as “inhibited” and the apoptosis ([3]; IL-6-dependent MM cell lines) is given as “induced”. For the same molecule, the cell proliferation ([3]; IL-6-dependent MM cell lines) was “suppressed” and the “dormancy of tumor cells” value ([3]; in some cases, then protects the tumor cells from death) was “induce dormancy of tumor cells”.
